In patent US6737383B1, “Herbicidal oxadiazolidines” (priority 1999, dated 2004):

Tests used:
pigweed = assay: Test B pre/postemergence pigweed; format: in vivo, Amaranthus retroflexus; settings: Rate 500 g/ha, Postemergence; scale 0 to 10, 0 no effect, 10 complete control
How it was run: (§1)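 Test chemicals in a non-phytotoxic solvent mixture with surfactant were sprayed preemergence onto planted seeds and postemergence onto plants 2 to 18 cm tall (1- to 4-leaf stage). After twelve to sixteen days in a greenhouse, injury was visually rated against untreated controls from 0 (no effect) to 10 (complete control).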

rape = assay: Test B pre/postemergence rape; format: in vivo, Brassica napus; settings: for Rape plant response rating: Rate 62 g/ha
How it was run: as §1

soybean = assay: Test B pre/postemergence soybean; format: in vivo, Glycine max
How it was run: as §1

sugar beet = assay: Test B pre/postemergence sugar beet; format: in vivo, Beta vulgaris
How it was run: as §1

velvetleaf = assay: Test B pre/postemergence velvetleaf; format: in vivo, Abutilon theophrasti
How it was run: as §1

wheat = assay: Test B pre/postemergence wheat; format: in vivo, Triticum aestivum
How it was run: as §1

wild oat = assay: Test B pre/postemergence wild oat; format: in vivo, Avena fatua
How it was run: as §1

purple nutsedge = assay: Test B pre/postemergence purple nutsedge; format: in vivo, Cyperus rotundus
How it was run: as §1

rice = assay: Test B flood test rice; format: in vivo, Oryza sativa
How it was run: (§2)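 Read-out is a visual response score from 0 (no effect) to 10 (complete control), assigned by comparison with untreated controls. Treatment was applied at the 2-leaf stage, and plants stayed in the greenhouse for twelve to sixteen days before scoring.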

smallflower flatsedge = assay: Test B flood test smallflower flatsedge; format: in vivo, Cyperus difformis
How it was run: as §2

duck salad = assay: Test B flood test duck salad; format: in vivo, Heteranthera limosa
How it was run: as §2

bamyardgrass = assay: Test B flood test barnyardgrass; format: in vivo, Echinochloa crus-galli
How it was run: as §2

[1] = Postemergence, Rate 125 g/ha, scale 0 to 10, 0 is no effect, 10 is complete control
[2] = Rate 500 g/ha, Postemergence, scale 0 to 10, 0 no effect, 10 complete control
[3] = Preemergence, Rate 62 g/ha, scale of 0 to 10 where 0 is no effect and 10 is complete control
[4] = Preemergence, Rate 250 g/ha, scale of 0 to 10 where 0 is no effect and 10 is complete control
[5] = Preemergence, Rate 500 g/ha, scale of 0 to 10 where 0 is no effect and 10 is complete control
[6] = Rate 62 g/ha, Postemergence, scale 0 to 10 (0 no effect, 10 complete control)
[7] = Rate 62 g/ha, headed Pre-emergence (flood test species), scale 0 to 10 (0 no effect, 10 complete control)
[8] = Rate 125 g/ha, Pre-emergence, flood test species, scale 0 to 10 where 0 is no effect and 10 is complete control
[9] = Rate 250 g/ha, Pre-emergence, flood-test species, scale 0 to 10, 0 is no effect, 10 is complete control
[10] = Rate 500 g/ha, Pre-emergence, flood test species, scale 0 to 10 (0 no effect, 10 complete control)

Structure (SMILES): CC(C)N(C(=O)n1oc(=O)n(-c2ccc3ccccc3c2)c1=O)c1ccc(F)cc1 [Compound 329]
- Plant response rating, Redroot pigweed (pigweed): 0
- Plant response rating, Rape (rape; [1]): 0
- Rape plant response rating (rape; Preemergence, scale of 0 to 10 where 0 is no effect and 10 is complete control): 0
- Rape plant response rating (0 to 10 scale) (rape; Preemergence, Rate 125 g/ha): 0
- Rape plant response rating (rape; Postemergence, scale 0 to 10 (0 no effect, 10 complete control)): 0
- Plant response rating, Rape (rape; [2]): 0
- Plant response rating, Soybean (soybean; [1]): 1
- Soybean plant response rating (soybean; [3]): 0
- Soybean plant response rating (0 to 10 scale) (soybean; Preemergence, Rate 125 g/ha): 0
- Soybean plant response rating (soybean; [4]): 0
- Soybean plant response rating (soybean; [5]): 0
- Soybean plant response rating (soybean; [6]): 1
- Plant response rating, Soybean (soybean; [2]): 2
- Plant response rating, Sugarbeets (sugar beet; [1]): 0
- Sugarbeets plant response rating (sugar beet; [3]): 0
- Sugarbeets plant response rating (0 to 10 scale) (sugar beet; Preemergence, Rate 125 g/ha): 0
- Sugarbeets plant response rating (sugar beet; [4]): 0
- Sugarbeets plant response rating (sugar beet; [5]): 0
- Sugarbeets plant response rating (sugar beet; [6]): 0
- Plant response rating, Sugarbeets (sugar beet; [2]): 0
- Plant response rating, Velvetleaf (velvetleaf; [1]): 0
- Velvetleaf plant response rating (velvetleaf; [3]): 0
- Velvetleaf plant response rating (0 to 10 scale) (velvetleaf; Preemergence, Rate 125 g/ha): 0
- Velvetleaf plant response rating (velvetleaf; [4]): 0
- Velvetleaf plant response rating (velvetleaf; [5]): 0
- Velvetleaf plant response rating (velvetleaf; [6]): 0
- Plant response rating, Velvetleaf (velvetleaf; [2]): 0
- Plant response rating, Wheat (wheat; [1]): 0
- Wheat plant response rating (wheat; [3]): 0
- Wheat plant response rating (0 to 10 scale) (wheat; Preemergence, Rate 125 g/ha): 0
- Wheat plant response rating (wheat; [4]): 0
- Wheat plant response rating (wheat; [5]): 0
- Wheat plant response rating (wheat; [6]): 0
- Plant response rating, Wheat (wheat; [2]): 0
- Plant response rating, Wild oats (wild oat; [1]): 0
- Wild oats plant response rating (wild oat; [3]): 0
- Wild oats plant response rating (0 to 10 scale) (wild oat; Preemergence, Rate 125 g/ha): 0
- Wild oats plant response rating (wild oat; [4]): 0
- Wild oats plant response rating (wild oat; [5]): 0
- Wild oats plant response rating (wild oat; [6]): 0
- Plant response rating, Wild oats (wild oat; [2]): 0
- Plant response rating, Nutsedge (purple nutsedge; [1]): 0
- Nutsedge plant response rating (purple nutsedge; [3]): 0
- Nutsedge plant response rating (purple nutsedge; [4]): 0
- Nutsedge plant response rating (purple nutsedge; [6]): 0
- Plant response rating, Nutsedge (purple nutsedge; [2]): 0
- Rice plant response rating (rice; [7]): 0
- Rice plant response rating (rice; [8]): 0
- Rice plant response rating (rice; [9]): 0
- Rice plant response rating (rice; [10]): 0
- S. Flatsedge plant response rating (smallflower flatsedge; [7]): 0
- S. Flatsedge plant response rating (smallflower flatsedge; [8]): 0
- S. Flatsedge plant response rating (smallflower flatsedge; [9]): 0
- S. Flatsedge plant response rating (smallflower flatsedge; [10]): 0
- Ducksalad plant response rating (duck salad; [7]): 0
- Ducksalad plant response rating (duck salad; [8]): 0
- Ducksalad plant response rating (duck salad; [9]): 0
- Ducksalad plant response rating (duck salad; [10]): 0
- Barnyardgrass plant response rating (bamyardgrass; [7]): 0
- Barnyardgrass plant response rating (bamyardgrass; [8]): 0
- Barnyardgrass plant response rating (bamyardgrass; [9]): 0
- Barnyardgrass plant response rating (bamyardgrass; [10]): 0
